Measured values published in PMC10534693, “A High-Performance Liquid Chromatography with Photodiode Array Detection Method for Simultaneous Determination of Three Compounds Isolated from Wikstroemia ganpi: Assessment of the Effects on Cytochrome P450-Mediated Metabolism In Vitro and In Vivo” (Nutrients, 2023).
Read-outs that look alike come from different tables or passages of the source.

Tests used:
[1] = In vivo pharmacokinetic study of BUS with or without WGM in rats; conditions: rat, plasma, po, 30 mg/kg; for AUC(0-inf) / Cmax / half-life: mean ± SD, n = 6
Protocol: The blood was immediately centrifuged at 3000× g for 10 min at 4 °C to obtain the plasma, which was pretreated and analyzed using the UPLC-MS/MS method.
(§1) The average plasma pharmacokinetic parameters, including the area under the curve from time 0 extrapolated to infinity (AUCinf) and the terminal half-life (t1/2), were determined using a non-compartment model (WinNonlin Ver. 3.1; Certara, Inc., Princeton, NJ, USA). The peak time (Tmax) and maximal concentration (Cmax) were obtained directly from the observed plasma concentration-time profiles. A t-test was used to compare two unpaired means, and a p-value of below 0.05 was considered statistically significant.

[2] = test system: CYP3A; assay: Inhibition of CYP3A-mediated metabolism (disappearance) of buspirone in rat liver S9 fraction; assay type: in vitro ADME; conditions: 1 μM BUS; for IC50 at 30 min: probe buspirone (BUS), rat liver S9 fraction 1 mg/mL, n = 5
Protocol: CYP isoforms-specific probe substrates were BUS for CYP3A, DIC for CYP2C, and DEX for CYP2D [34, 35, 37]. Dose–response curves assessed metabolic inhibition of BUS in the presence of 1 μM BUS and 10 different concentrations (0, 0.1, 0.5, 1, 2, 5, 10, 20, 50, and 100 μM) of 7-methoxyluteolin-5-O-glucoside, pilloin 5-O-β-D-glucopyranoside or rutarensin. The mixture without substrate and inhibitor was incubated for 5 min at 37 °C, after which the substrate and inhibitor were added to initiate the enzyme reaction. After incubating BUS (reaction time: 30 min), DIC and DEX (reaction time: 60 min) at 37 °C at a speed of 500 oscillations/min, a sample was obtained from the reaction mixture and mixed with cold acetonitrile containing an internal standard (IS) to terminate the reaction. After sample preparation, the samples were analyzed using the ultra-performance liquid chromatography–tandem mass spectrometry (UPLC-MS/MS) method (see the sections entitled ‘Biological Sample Preparation’ and ‘UPLC-MS/MS Conditions’ in the Supplementary Materials).
as §1

[3] = Stability of marker components in WGM sample and reference stock solutions (HPLC-PDA peak area); assay type: physicochemical; conditions: for Peak Area (%) 6 h / Peak Area (%) 24 h / Peak Area (%) 48 h / Peak Area (%) 72 h: vs 0 h, n = 5; for Decrease of peak area / Increase of peak area: Reference solution
Description: The developed HPLC-PDA simultaneous analysis conditions were validated according to ICH Q2(R1) guidelines. The validation characteristics included specificity, linearity, detection limit, quantitation limit, precision, recovery, and stability. Specificity is defined as the ability to clearly identify an analyte in a sample containing a mixture of impurities. This was verified by comparing and overlaying the chromatograms and PDA spectra obtained from the WGM samples and the reference mixture to confirm that the retention time (tR), spectral pattern, and maximum absorption wavelength (λmax) of the three reference compounds were consistent. Linearity is a test used to derive calibration curves by obtaining measurements that are directly proportional to the concentration of the substance being examined within a certain range. The stock solutions of 7-methoxyluteolin-5-O-glucoside (1), pilloin 5-O-β-D-glucopyranoside (2), and rutarensin (3) were diluted to six target concentrations (5.0, 50.0, 250.0, 400.0, 500.0, and 600.0 μg/mL) in DMSO/MeOH (50:50, v/v) mixtures, and six replicates (n = 6) were performed for each working solution. The calibration curve was expressed using a linear equation (y = ax + b) through linear regression analysis as a function of the area (y) vs. the concentration (x) of each reference peak, and the slope (a), y-intercept (b), and correlation coefficient (r^2) were calculated. The correlation coefficients for the acceptance criteria exceeded 0.999. The detection limit (DL) and quantitation limit (QL) are the minimum detection and quantitation limits of the analyte in the sample, respectively, that can be reliably quantified. These values were measured using the standard deviation (SD) of the y-intercept (σ) and the slope of the calibration curve (S) derived based on the linearity evaluation and were calculated as follows: DL = 3.3 σ/S and QL = 10 σ/S. Precision is an analytical procedure used to evaluate repeatability and reproducibility. The repeatability of the experiment was assessed by measuring the intra- and inter-day precision. Three reference compounds were repeated five times (n = 5) at low, medium and high concentration levels (10.0, 100.0, and 300.0 µg/mL). Intra-day precision was injected on the same day, while inter-day precision was injected on days 1, 3, and 5. The results were determined using the relative standard deviation (RSD) of the peak area. The %RSD was calculated as follows: RSD (%) = (standard deviation/mean measured amount) × 100. %RSD value of <2% means that the developed HPLC-PDA method is precise and reproducible enough for simultaneous analysis and evaluation of the three compounds. […] The analysis was repeated three times (n = 3), and the measured values were calculated as follows: % recovery = (found concentration-original concentration)/spiked concentration × 100. Stability was used to evaluate the degree of change in the solution concentration with storage conditions and time. […] The stability results were evaluated as the %peak area change and %RSD between the mean peak area of the control group (0 h) and that of the experimental group (6, 24, 48, and 72 h).

[4] = BUS 30 mg/kg oral co-administered with 1 g/kg WGM
[5] = Reference solution (DMSO/MeOH 50:50), 4 °C
[6] = Reference solution (DMSO/MeOH 50:50), R.T.

Row | Structure (SMILES) | IC50 at 30 min [2] [µM] | Peak Area (%) 6 h [3, 5] [%] | Peak Area (%) 24 h [3, 5] [%] | Peak Area (%) 48 h [3, 5] [%] | Peak Area (%) 72 h [3, 5] [%] | Peak Area (%) 6 h [3, 6] [%] | Peak Area (%) 24 h [3, 6] [%] | Peak Area (%) 48 h [3, 6] [%] | Peak Area (%) 72 h [3, 6] [%] | Decrease of peak area ([3]; room temperature, after 6 h) [%] | Peak Area (%) 6 h ([3]; WGM solution, 4 °C) [%] | Peak Area (%) 24 h ([3]; WGM solution, 4 °C) [%] | Peak Area (%) 48 h ([3]; WGM solution, 4 °C) [%] | Peak Area (%) 72 h ([3]; WGM solution, 4 °C) [%] | Peak Area (%) 6 h ([3]; WGM solution, R.T.) [%] | Peak Area (%) 24 h ([3]; WGM solution, R.T.) [%] | Peak Area (%) 48 h ([3]; WGM solution, R.T.) [%] | Peak Area (%) 72 h ([3]; WGM solution, R.T.) [%] | other results
1 | O=C1CC2(CCCC2)CC(=O)N1CCCCN1CCN(c2ncccn2)CC1 [BUS, Buspirone] |  |  |  |  |  |  |  |  |  |  |  |  |  |  |  |  |  |  | Tmax ([1]; 30 mg/kg oral, with or without WGM, read-out: Tmax of BUS): 5 to 15 min; AUC(0-inf) [1, 4]: 1980 ng·h/mL; Cmax [1, 4]: 2020 ± 619 ng/mL; half-life [1, 4]: 103 ± 27 min; Tmax ([1]; BUS 30 mg/kg oral co-administered with 1 g/kg WGM, n = 6, read-out: Tmax (converted)): 5 min; AUC(0-inf) ([1]; BUS alone, 30 mg/kg oral): 1640 ng·h/mL; Cmax ([1]; BUS alone, 30 mg/kg oral): 1630 ± 762 ng/mL; half-life ([1]; BUS alone, 30 mg/kg oral): 111 ± 23 min; Tmax ([1]; BUS alone, 30 mg/kg oral, n = 6, read-out: Tmax (converted)): 10 min
2 | COc1cc(O[C@@H]2O[C@H](CO)[C@@H](O)[C@H](O)[C@H]2O)c2c(=O)cc(-c3ccc(O)c(O)c3)oc2c1 [Compound 1, 7-methoxyluteolin-5-O-glucoside] | 2.73 | 99.15 | 96.60 | 96.58 | 97.39 | 99.46 | 98.56 | 100.34 | 99.03 | 0.54 | 100.10 | 98.87 | 98.63 | 101.60 | 100.80 | 100.10 | 97.43 | 100.99 | 
3 | COc1cc(O[C@@H]2O[C@H](CO)[C@@H](O)[C@H](O)[C@H]2O)c2c(=O)cc(-c3ccc(OC)c(O)c3)oc2c1 [Compound 2, pilloin 5-O-β-D-glucopyranoside] | 18.7 | 99.29 | 102.15 | 104.42 | 101.79 | 101.71 | 103.18 | 107.58 | 103.48 |  | 100.32 | 99.18 | 98.86 | 102.02 | 101.41 | 101.08 | 98.97 | 103.35 | Increase of peak area ([3]; 4 °C, after 48 h): 4.42%; Increase of peak area ([3]; R.T., after 48 h): 7.58%; Increase of peak area ([3]; room temperature, after 6 h): 1.71%
4 | COc1cc2cc(Oc3ccc4ccc(=O)oc4c3)c(=O)oc2cc1O[C@@H]1O[C@H](COC(=O)CC(C)(O)CC(=O)O)[C@@H](O)[C@H](O)[C@H]1O (some centres unmarked) [Compound 3, rutarensin] |  | 98.02 | 99.40 | 98.78 | 101.22 | 96.77 | 98.82 | 98.54 | 98.72 | 3.23 | 100.19 | 99.30 | 98.91 | 102.15 | 101.30 | 101.14 | 98.98 | 103.56 | Inhibition of BUS metabolism (dose-response) ([2]; rat liver S9 fraction, 0-100 μM marker compound): did not inhibit
